Reference: US6440446B1, “Agent for anti-osteoporosis” (Kabushiki Kaisha Hayashibara Seibutsu Kagaku Kenkyujo, priority 1998, dated 2002)
Where two headings read alike, the source gives them in different places.

What was measured:
[1] = test system: ovary-extracted mice (oophorectomized osteoporosis); experiment: Animal experiment: oral administration to ovary-extracted mice on low-calcium feed, dry weight of femurs and tibia microscopy; assay type: in vivo, female ddY mice
From the text: According to what is done conventionally, female ddY mice, 4-week-old, which had been grouped into 34 heads/group based on their body weight, were anesthetized with sodium pentobarbital, and extracted their ovaries. From the next day, the mice were orally administered with “TREHAOSE®”, a crystalline trehalose powder containing at least 98% trehalose, d.s.b., commercialized by Hayashibara Shoji, Inc, Okayama, Japan, which had been dissolved in distilled water, at a dose of 0.01, 0.1 or 1 g/kg body weight per shot once every day, five shots in a week. […] The feed used was a low-calcium feed for ease of making the difference of the bone content.
In parallel, the following control groups were provided and treated similarly as the group with trehalose: As control 1, a group in which mice were administered with the same amount of distilled water as the aqueous trehalose solution in place of the trehalose solution; as control 2, a group in which mice were administered with estradiol, as a therapeutic agent for osteoporosis, dissolved in the same amount of distilled water as the aqueous trehalose solution in place of the trehalose solution, at a dose of one mg/kg body weight/shot, two times a week; and as control 3, a group in which mice, which were received with a laparotomy pseudo-operation and not extracted their ovaries, were administered with the same amount of distilled water as the aqueous trehalose solution in place of the trehalose solution. Some of the mice administered with trehalose at a dose of 0.1 g/kg body weight/shot, and the mice in controls 1 and 3 as groups with no trehalose were extracted their tibias, followed by observing the tibias microscopically. The specimens for microscopic observation were prepared in the usual manner by immobilizing the extracted tibias with formalin solution, washed with water, delimed, split along with the long axis, and treated with protease K to remove bone marrow cells. The specimens of tibias were observed by a relatively-low vacuum electron-microscope under 24 magnifications, and photographed. The data are respectively in FIGS. 1 to 3. In these figures, white parts are the trabecula of cancellous bone. The osteoporosis occurred in the mice extracted their ovaries is called oophorectomized osteoporosis and is an excellent model for postmenopausal osteoporosis as a geriatric osteoporosis.

[2] = test system: ddY mice; conditions: mouse, in vivo
Protocol: An adequate amount of “TREHAOSE®”, a crystalline trehalose powder having at least 98% of trehalose, d.s.b., commercialized by Hayashibara Shoji, Inc., Okayama, Japan, was dissolved in physiological saline containing 5 w/w % gum arabic, and the solution was sterilized in the usual manner. The sterilized solution was injected intraperitoneally or orally administered using a gastric tube to ddY mice, 20-25 g weight, in a group of 10 heads, followed by the observation for seven days. As a result, independently of the administration routes, no mouse died even administered with the maximum dose, 15 g/kg body weight.

[3] = test system: ovary-extracted mice (oophorectomized osteoporosis); experiment: Animal experiment: intravenous injection to ovary-extracted mice on low-calcium feed, dry weight of femurs and tibia microscopy; assay type: in vivo, female ddY mice; conditions: for Dry weight of extracted tibia / Dry weight of extracted tibia / Body weight: tail vein, 5 ml/kg body weight/shot, once daily, five times a week; for Bone content compared with the control groups (ovaries extracted, PBS): administered in place of trehalose, data not shown
Protocol: An injection containing 10 w/w % trehalose, obtained by the later described Example 7, was diluted with a phosphate buffered saline, which had been filtered with a membrane filter having a pore size of 0.22 μm (hereinafter abbreviated as “PBS”) into a 0.1 w/w % or 1 w/w % trehalose solution. These solutions and the above injection were used for test samples. According to what is done conventionally, female ddY mice, 4-week-old, which had been grouped into 34 heads/group based on their body weight, were anesthetized with sodium pentobarbital, and extracted their ovaries. From the next day, the mice were injected from their tail veins with any one of the test samples at a dose of 5 ml/kg body weight/shot, once every day and five times a week. […] The feed used was a low-calcium feed for ease of making the difference of the bone content.
In parallel, the following control groups were provided and treated similarly as the group with trehalose: As control 1, a group in which mice were administered with the same amount of PBS as the test samples in place of them; and as control 2, a group in which mice, that were received with a laparotomy pseudo-operation and were not extracted their ovaries, were administered with the same amount of PBS as the test samples in place of them. Some of the mice administered with trehalose using one w/w t trehalose solution, and the mice in controls 1 and 2 as non-trehalose administration groups were extracted their tibias, followed by observing the tibias microscopically. The specimens for microscopic observation were prepared in the usual manner by immobilizing the extracted tibias with formalin solution, washed with water, delimed, split along with the long axis, and treated with protease K to remove bone marrow cells. The specimens of tibias were observed by a relatively-low vacuum electron-microscope under 24 magnifications, and photographed. The data are respectively in FIGS. 4 to 6. In these figures, white parts are the trabecula of cancellous bone. The osteoporosis occurred in mice extracted their ovaries is called oophorectomized osteoporosis and is an excellent model for postmenopausal osteoporosis as a geriatric osteoporosis.

[4] = test system: osteoclasts; experiment: Osteoclast count in cultured bone marrow cells from tibias of intravenously treated mice (tartaric-acid-resistant acid phosphatase staining); assay type: cell-based, ddY mice; conditions: bone marrow cells from mice given 10% trehalose solution, about 5 ml/kg body weight/shot; control 1 at least 3-times
Protocol: Similarly as above, the tibias were extracted from some mice, excluding the aforesaid mice which had been extracted their tibias, in the group with 10% trehalose solution at a dose of about 5 ml/kg body weight/shot, and in the groups 1 and 3. From each tibia, bone marrow cells were collected in the usual manner and suspended in α-MEM medium, supplemented with 10 v/v % fetal calf serum, to give a cell density of 1.5×10^6 cells/ml. The resulting cell suspensions were respectively placed in 24-well plates in a volume of 0.5 ml/well. To each well was added 0.25 ml/well of a cell suspension with a cell density of 4×10^4 cells/ml of osteoblast-like cells suspended in a fresh preparation of the same medium as above. A solution of 4×10^9M 1α, 25-dihydroxy vitamin D3, dissolved in a fresh preparation of the same medium as above, was added to each well in a volume of 0.25 ml/well. The resulting cell suspension mixtures were incubated in a 5 v/v % CO2 incubator at 37° C. for six days while replacing the media with a fresh preparation of α-MEM medium containing 1×10^9M 1α, 25-dihydroxy vitamin D3 and 10 v/v % fetal calf serum.
After completion of the culture, the supernatants were removed, and the cells in each well were fixed with formalin, and treated in the usual manner with “NAPHTHOL AS-MS PHOSPHATE” and “RED VIOLET LB”, which are commercialized by Sigma Chemical Company, ST. […]

[5] = test system: osteoclasts; experiment: Osteoclast count in cultured bone marrow cells from tibias of orally treated mice (tartaric-acid-resistant acid phosphatase staining); assay type: cell-based, ddY mice; conditions: bone marrow cells from mice given oral 0.1 g/kg body weight/shot; control 1 at least 3-times
From the text: Similarly as above, the tibias were extracted from some mice, excluding the aforesaid mice which had been extracted their tibias, in the group with trehalose at a dose of 0.1 g/kg body weight/shot, and in the groups 1 and 3. From each tibia, bone marrow cells were collected in the usual manner and suspended in α-MEM medium, supplemented with 10 v/v % fetal calf serum, to give a cell density of 1.5×10^6 cells/ml. The resulting cell suspensions were respectively placed in 24-well plates in a volume of 0.5 ml/well. To each well was added 0.25 ml/well of a cell suspension with a cell density of 4×10^4 cells/ml of osteoblast-like cells suspended in a fresh preparation of the same medium as above. A solution of 4×10^9M 1α, 25-dihydroxy vitamin D3, dissolved in a fresh preparation of the same medium as above, was added to each well in a volume. of 0.25 ml/well. The resulting cell suspension mixtures were incubated in a 5 v/v % CO2 incubator at 37° C. for six days while replacing the media with a fresh preparation of α-MEM medium containing 1×10^9M 1α, 25-dihydroxy vitamin D3 and 10 v/v % fetal calf serum.
After completion of the culture, the supernatants were removed, and the cells in each well were fixed with formalin, and treated in the usual manner with “NAPHTHOL AS-MS PHOSPHATE” and “RED VIOLET LB SALT”, which are commercialized by Sigma Chemical Company, ST. […]

[6] = oral 0.01 g/kg body weight/shot, once daily, five shots a week, ovary-extracted mice
[7] = oral 0.1 g/kg body weight/shot, once daily, five shots a week, ovary-extracted mice
[8] = oral 1 g/kg body weight/shot, once daily, five shots a week, ovary-extracted mice
[9] = one mg/kg body weight/shot, two times a week (control 2), ovary-extracted mice

Structure (SMILES): OC[C@H]1O[C@@](CO)(O[C@H]2O[C@H](CO)[C@@H](O)[C@H](O)[C@H]2O)[C@@H](O)[C@@H]1O [sucrose, reference compound]
- Bone content compared with the control group (ovaries extracted, distilled water) ([1]; administered in place of trehalose, data not shown): no significant difference

Structure (SMILES): OC[C@H]1O[C@H](O[C@H]2O[C@H](CO)[C@@H](O)[C@H](O)[C@H]2O)[C@H](O)[C@@H](O)[C@@H]1O [Trehalose, trehalose]
- Death at the maximum dose ([2]; ip): no mouse died
- Death at the maximum dose ([2]; po): no mouse died
- Dry weight of extracted tibia ([3]; 0.1 w/w % trehalose solution): 84.2 ± 6.9 mg
- Dry weight of extracted tibia / Body weight ([3]; 0.1 w/w % trehalose solution): 2.639 ± 0.213 mg/g
- Dry weight of extracted tibia ([3]; 1 w/w % trehalose solution): 86.9 ± 6.1 mg
- Dry weight of extracted tibia / Body weight ([3]; 1 w/w % trehalose solution): 2.716 ± 0.191 mg/g
- Dry weight of extracted tibia ([3]; 10 w/w % trehalose injection): 89.7 ± 5.5 mg
- Dry weight of extracted tibia / Body weight ([3]; 10 w/w % trehalose injection): 2.777 ± 0.170 mg/g
- Trehalose concentration at which the inhibitory effect on the lowering of bone content was found ([3]; intravenous, about 5 ml/kg body weight/shot): ~1 w/w %
- Abnormality induced by the administration ([3]; intravenous, observation throughout the experiment): No abnormality
- Reduction of the trabecula in cancellous bone and expansion of the cavity of marrow (tibia, electron microscope x24, FIG. 4) ([3]; one w/w % trehalose solution, intravenous 5 ml/kg body weight/shot): clearly inhibited
- Number of osteoclasts relative to control 2 (times higher) [4]: about 2 times
- Number of osteoclasts relative to control 2 (times higher) [5]: about 2 times
- Dry weight of extracted tibia [1, 6]: 83.6 ± 7.0 mg
- Dry weight of extracted tibia / Body weight [1, 6]: 2.643 ± 0.195 mg/g
- Dry weight of extracted tibia [1, 7]: 85.0 ± 5.2 mg
- Dry weight of extracted tibia / Body weight [1, 7]: 2.723 ± 0.163 mg/g
- Reduction of trabecula in cancellous bone and expansion of the cavity of marrow (tibia, electron microscope x24, FIG. 1) ([1]; oral 0.1 g/kg body weight/shot, ovary-extracted mice): clearly inhibited
- Dry weight of extracted tibia [1, 8]: 88.4 ± 6.4 mg
- Dry weight of extracted tibia / Body weight [1, 8]: 2.762 ± 0.172 mg/g
- Abnormality induced by the administration ([1]; oral, observation throughout the experiment): No abnormality
- Dose at which the inhibitory effect on the lowering of the bone content was found ([1]; oral, ovary-extracted mice): about 0.1 g/kg body weight/shot

Structure (SMILES): OC[C@@H](O)[C@@H](O)[C@H](O)[C@@H](O)CO [sorbitol, reference compound]
- Bone content compared with the control groups (ovaries extracted, PBS) [3]: no significant difference

Structure (SMILES): C[C@]12CC[C@@H]3c4ccc(O)cc4CC[C@H]3[C@@H]1CC[C@@H]2O [Estradiol, estradiol, reference compound]
- Dry weight of extracted tibia [1, 9]: 119.9 ± 7.5 mg
- Dry weight of extracted tibia / Body weight [1, 9]: 3.520 ± 0.240 mg/g

Structure (SMILES): OC[C@@H](O)[C@H](O)[C@@H](O)CO [xylitol, reference compound]
- Bone content compared with the control groups (ovaries extracted, PBS) [3]: no significant difference

Structure (SMILES): OC[C@H]1O[C@H](O[C@H]2[C@H](O)[C@@H](O)C(O)O[C@@H]2CO)[C@H](O)[C@@H](O)[C@@H]1O (mixture of isomers) [maltose, reference compound]
- Bone content compared with the control groups (ovaries extracted, PBS) [3]: no significant difference
